Test results as given in patent US12157741B2, “Macrocyclic inhibitors of DYRK1A” (DANA-FARBER CANCER INSTITUTE, INC., priority 2018, dated 2024).
Read-outs that look alike come from different tables or passages of the source.

Key:
Type in all cases: binding
various enzymes [1] = target: various enzymes (Homo sapiens, UniProt Q96D53); settings: compound 1 uM
Description: (§1) Ambit profiling was conducted in accordance with the manufacturer's instructions.

various enzymes [2] = target: various enzymes (Homo sapiens, UniProt P00533, T790M)
Description: as §1

various enzymes [3] = target: various enzymes (Homo sapiens, UniProt Q8IYT8); settings: compound 1 uM
Sequence of various enzymes (Homo sapiens, UniProt Q8IYT8) (Q8IYT8 whole entry): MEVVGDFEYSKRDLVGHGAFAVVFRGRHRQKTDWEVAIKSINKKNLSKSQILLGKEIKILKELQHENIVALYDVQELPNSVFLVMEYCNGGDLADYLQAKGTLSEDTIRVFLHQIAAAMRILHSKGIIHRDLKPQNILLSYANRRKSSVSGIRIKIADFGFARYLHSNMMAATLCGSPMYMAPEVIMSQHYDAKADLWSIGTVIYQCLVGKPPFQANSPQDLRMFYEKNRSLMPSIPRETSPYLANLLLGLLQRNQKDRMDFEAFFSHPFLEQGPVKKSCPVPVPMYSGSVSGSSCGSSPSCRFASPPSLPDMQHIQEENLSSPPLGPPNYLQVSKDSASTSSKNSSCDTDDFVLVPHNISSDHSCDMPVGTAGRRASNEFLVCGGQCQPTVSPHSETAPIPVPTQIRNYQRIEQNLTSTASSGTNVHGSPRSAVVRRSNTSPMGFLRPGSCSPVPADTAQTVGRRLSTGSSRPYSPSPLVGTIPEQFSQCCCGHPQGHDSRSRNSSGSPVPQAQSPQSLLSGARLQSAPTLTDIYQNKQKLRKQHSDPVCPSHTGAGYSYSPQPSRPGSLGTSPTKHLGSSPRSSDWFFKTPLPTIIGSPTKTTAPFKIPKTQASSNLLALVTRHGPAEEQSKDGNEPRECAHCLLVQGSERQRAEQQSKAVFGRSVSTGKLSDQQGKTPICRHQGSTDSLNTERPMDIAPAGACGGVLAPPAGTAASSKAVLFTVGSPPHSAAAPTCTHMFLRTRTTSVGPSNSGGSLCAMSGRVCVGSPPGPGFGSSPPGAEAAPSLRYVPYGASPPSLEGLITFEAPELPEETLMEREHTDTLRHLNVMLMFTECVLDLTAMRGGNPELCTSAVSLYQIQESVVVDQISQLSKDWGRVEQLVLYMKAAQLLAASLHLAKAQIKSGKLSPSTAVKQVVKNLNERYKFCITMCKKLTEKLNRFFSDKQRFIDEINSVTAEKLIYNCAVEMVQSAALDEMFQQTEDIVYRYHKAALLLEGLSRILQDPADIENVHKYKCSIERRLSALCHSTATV
Description: as §1

various enzymes [4] = target: various enzymes (Homo sapiens, UniProt P36888, D835Y)
Description: as §1

various enzymes [5] = target: various enzymes (Homo sapiens, UniProt P0C1S8); settings: compound 1 uM
Description: as §1

various enzymes [6] = target: various enzymes (Homo sapiens, UniProt P37173); settings: compound 1 uM
Description: as §1

various enzymes [7] = target: various enzymes (Homo sapiens, UniProt Q32MK0); settings: compound 1 uM
Sequence of various enzymes (Homo sapiens, UniProt Q32MK0) (Q32MK0 whole entry): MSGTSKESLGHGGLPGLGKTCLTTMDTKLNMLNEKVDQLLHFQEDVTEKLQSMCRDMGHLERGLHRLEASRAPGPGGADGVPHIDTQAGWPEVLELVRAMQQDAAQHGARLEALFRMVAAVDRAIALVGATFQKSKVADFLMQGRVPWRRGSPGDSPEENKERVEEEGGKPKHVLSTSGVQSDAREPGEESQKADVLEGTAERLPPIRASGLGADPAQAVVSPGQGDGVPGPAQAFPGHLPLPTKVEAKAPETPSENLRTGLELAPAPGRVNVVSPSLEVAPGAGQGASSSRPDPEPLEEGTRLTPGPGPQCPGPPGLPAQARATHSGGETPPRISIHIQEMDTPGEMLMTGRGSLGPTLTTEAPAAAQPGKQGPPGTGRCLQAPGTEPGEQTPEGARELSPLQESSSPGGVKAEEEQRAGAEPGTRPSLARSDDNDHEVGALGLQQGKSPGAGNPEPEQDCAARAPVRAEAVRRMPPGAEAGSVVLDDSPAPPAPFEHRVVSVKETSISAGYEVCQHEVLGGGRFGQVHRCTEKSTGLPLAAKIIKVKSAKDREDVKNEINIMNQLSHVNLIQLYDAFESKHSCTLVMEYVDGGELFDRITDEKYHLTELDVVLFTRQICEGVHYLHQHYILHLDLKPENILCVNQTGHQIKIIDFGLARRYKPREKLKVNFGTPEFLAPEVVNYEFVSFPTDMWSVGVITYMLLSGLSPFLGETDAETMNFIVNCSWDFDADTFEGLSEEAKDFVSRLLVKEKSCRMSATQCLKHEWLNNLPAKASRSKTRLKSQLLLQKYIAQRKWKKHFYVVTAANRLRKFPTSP
Description: as §1

various enzymes [8] = target: various enzymes (Homo sapiens, UniProt P49840); settings: compound 1 uM
Description: as §1

various enzymes [9] = target: various enzymes (Homo sapiens, UniProt P11362); settings: compound 1 uM
Description: as §1

various enzymes [10] = target: various enzymes (Homo sapiens, UniProt Q9Y6E0); settings: compound 1 uM
Description: as §1

various enzymes [11] = target: various enzymes (Homo sapiens, UniProt P36888, R834Q)
Description: as §1

various enzymes [12] = target: various enzymes (Homo sapiens, UniProt P78362); settings: compound 1 uM
Description: as §1

various enzymes [13] = target: T1, various enzymes (Homo sapiens, UniProt O14733); settings: compound 1 uM
T1 sequence (O14733 1-419): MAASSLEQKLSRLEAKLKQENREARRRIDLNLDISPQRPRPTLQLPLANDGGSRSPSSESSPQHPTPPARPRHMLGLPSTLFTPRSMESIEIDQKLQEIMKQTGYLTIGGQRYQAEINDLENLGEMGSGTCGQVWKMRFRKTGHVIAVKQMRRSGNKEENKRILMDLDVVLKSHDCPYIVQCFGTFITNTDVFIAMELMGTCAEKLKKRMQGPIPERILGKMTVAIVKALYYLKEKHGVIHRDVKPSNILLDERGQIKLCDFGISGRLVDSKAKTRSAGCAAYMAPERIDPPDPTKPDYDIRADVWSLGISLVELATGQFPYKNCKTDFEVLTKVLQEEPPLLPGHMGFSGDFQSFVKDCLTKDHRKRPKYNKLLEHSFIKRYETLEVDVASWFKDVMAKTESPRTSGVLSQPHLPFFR
Description: as §1

various enzymes [14] = target: various enzymes (Homo sapiens, UniProt O15264); settings: compound 1 uM
Description: as §1

various enzymes [15] = target: various enzymes (Homo sapiens, UniProt Q9HBY8); settings: compound 1 uM
Description: as §1

various enzymes [16] = target: various enzymes (Homo sapiens, UniProt Q8TF76); settings: compound 1 uM
Description: as §1

various enzymes [17] = target: various enzymes (Homo sapiens, UniProt O14730); settings: compound 1 uM
Description: as §1

various enzymes [18] = target: various enzymes (Homo sapiens, UniProt O75716); settings: compound 1 uM
Description: as §1

various enzymes [19] = target: various enzymes (Homo sapiens, UniProt P14616); settings: compound 1 uM
Sequence of various enzymes (Homo sapiens, UniProt P14616) (P14616 27-1297): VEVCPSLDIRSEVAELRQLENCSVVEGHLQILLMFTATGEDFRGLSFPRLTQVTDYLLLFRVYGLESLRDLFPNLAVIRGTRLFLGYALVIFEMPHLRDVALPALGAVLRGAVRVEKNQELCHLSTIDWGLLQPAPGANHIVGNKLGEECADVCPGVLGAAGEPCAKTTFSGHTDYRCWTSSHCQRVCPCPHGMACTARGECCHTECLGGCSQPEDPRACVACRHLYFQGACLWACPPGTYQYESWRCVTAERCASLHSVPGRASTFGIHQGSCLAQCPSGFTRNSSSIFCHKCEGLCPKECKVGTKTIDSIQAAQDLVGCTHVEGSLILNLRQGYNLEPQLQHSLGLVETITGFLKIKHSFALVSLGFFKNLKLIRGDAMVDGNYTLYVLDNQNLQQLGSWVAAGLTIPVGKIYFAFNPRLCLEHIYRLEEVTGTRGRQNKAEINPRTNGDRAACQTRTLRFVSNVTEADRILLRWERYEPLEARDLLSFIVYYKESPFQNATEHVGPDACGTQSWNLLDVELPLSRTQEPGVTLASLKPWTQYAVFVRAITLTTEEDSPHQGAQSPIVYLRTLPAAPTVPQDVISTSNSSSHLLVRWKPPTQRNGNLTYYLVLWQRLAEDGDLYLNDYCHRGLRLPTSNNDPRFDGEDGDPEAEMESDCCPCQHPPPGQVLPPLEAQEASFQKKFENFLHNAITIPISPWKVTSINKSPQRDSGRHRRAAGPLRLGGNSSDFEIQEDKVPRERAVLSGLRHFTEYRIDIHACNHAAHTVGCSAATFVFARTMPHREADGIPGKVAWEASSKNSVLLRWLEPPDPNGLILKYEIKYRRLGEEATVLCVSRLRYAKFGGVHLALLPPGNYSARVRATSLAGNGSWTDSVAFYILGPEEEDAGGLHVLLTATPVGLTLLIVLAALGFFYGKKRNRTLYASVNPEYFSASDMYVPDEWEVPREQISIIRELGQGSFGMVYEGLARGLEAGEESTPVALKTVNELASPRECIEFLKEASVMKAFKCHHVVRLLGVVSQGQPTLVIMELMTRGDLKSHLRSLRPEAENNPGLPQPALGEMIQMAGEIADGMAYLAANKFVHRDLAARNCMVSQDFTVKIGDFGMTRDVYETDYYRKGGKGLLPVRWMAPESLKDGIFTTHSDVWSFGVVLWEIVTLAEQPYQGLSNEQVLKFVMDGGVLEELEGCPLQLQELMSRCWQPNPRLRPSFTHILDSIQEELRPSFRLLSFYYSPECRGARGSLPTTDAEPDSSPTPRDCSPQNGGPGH
Description: as §1

various enzymes [20] = target: various enzymes (Homo sapiens, UniProt P42336, H1047Y)
Description: as §1

various enzymes [21] = target: various enzymes (Homo sapiens, UniProt Q8N5S9); settings: compound 1 uM
Description: as §1

various enzymes [22] = target: T2, various enzymes (Homo sapiens, UniProt Q9NWZ3); settings: compound 1 uM
T2 sequence (Q9NWZ3 1-460): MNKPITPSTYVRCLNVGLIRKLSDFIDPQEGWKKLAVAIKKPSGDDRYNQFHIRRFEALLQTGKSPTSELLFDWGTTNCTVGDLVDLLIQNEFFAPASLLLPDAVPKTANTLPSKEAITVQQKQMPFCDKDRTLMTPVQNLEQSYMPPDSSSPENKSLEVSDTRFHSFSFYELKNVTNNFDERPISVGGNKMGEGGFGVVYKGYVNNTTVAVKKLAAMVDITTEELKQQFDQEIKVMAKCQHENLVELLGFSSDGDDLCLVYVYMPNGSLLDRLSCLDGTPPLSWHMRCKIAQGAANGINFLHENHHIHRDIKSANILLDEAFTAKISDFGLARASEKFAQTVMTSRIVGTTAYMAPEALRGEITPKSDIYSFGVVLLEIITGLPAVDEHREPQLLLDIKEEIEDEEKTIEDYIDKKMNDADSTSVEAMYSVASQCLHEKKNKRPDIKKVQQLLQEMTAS
Description: as §1

various enzymes [23] = target: various enzymes (Homo sapiens, UniProt Q5VT25); settings: compound 1 uM
Description: as §1

various enzymes [24] = target: various enzymes (Homo sapiens, UniProt P53671); settings: compound 1 uM
Description: as §1

various enzymes [25] = target: various enzymes (Homo sapiens, UniProt Q16566); settings: compound 1 uM
Description: as §1

various enzymes [26] = target: T3, various enzymes (Homo sapiens, UniProt P36888, F691L, form not given)
T3 construct: other: FLT3(ITD, F691L); 1 uM; other: compound 1 uM
Description: as §1

various enzymes [27] = target: various enzymes (Homo sapiens, UniProt P35916); settings: compound 1 uM
Sequence of various enzymes (Homo sapiens, UniProt P35916) (P35916 25-1363): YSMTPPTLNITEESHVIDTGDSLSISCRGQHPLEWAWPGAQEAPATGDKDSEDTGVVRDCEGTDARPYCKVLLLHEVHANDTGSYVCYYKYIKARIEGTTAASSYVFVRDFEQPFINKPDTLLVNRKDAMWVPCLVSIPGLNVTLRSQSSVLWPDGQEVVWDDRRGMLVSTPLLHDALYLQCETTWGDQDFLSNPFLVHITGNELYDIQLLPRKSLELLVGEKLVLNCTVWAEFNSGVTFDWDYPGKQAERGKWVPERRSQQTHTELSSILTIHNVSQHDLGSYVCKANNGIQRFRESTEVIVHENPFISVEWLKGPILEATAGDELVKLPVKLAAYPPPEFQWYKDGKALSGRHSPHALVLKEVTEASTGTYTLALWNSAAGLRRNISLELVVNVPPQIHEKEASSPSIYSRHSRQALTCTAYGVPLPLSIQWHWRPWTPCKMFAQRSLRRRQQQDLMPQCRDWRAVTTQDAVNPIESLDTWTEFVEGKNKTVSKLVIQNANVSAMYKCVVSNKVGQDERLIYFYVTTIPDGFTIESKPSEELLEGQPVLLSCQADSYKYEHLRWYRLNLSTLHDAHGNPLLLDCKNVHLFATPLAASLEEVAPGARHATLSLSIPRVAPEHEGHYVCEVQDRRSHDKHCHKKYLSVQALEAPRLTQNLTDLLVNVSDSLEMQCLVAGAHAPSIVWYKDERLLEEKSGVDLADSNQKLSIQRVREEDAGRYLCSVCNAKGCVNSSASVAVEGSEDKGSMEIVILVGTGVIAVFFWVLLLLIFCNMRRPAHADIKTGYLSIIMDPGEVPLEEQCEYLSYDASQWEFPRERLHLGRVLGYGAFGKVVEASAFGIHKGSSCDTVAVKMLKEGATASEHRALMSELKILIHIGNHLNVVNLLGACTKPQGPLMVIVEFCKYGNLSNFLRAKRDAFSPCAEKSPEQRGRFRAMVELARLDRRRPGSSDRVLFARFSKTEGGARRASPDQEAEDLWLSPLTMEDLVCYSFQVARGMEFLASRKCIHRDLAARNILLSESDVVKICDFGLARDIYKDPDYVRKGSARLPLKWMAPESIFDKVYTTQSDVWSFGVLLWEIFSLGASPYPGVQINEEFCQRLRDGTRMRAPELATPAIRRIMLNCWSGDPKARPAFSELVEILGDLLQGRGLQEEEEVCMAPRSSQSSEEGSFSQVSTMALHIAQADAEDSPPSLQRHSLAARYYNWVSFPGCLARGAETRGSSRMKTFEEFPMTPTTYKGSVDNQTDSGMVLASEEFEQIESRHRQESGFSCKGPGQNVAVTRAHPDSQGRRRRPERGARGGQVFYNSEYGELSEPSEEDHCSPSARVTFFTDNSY
Description: as §1

various enzymes [28] = target: various enzymes (Homo sapiens, UniProt O75747); settings: compound 1 uM
Description: as §1

various enzymes [29] = target: various enzymes (Homo sapiens, UniProt Q16584); settings: compound 1 uM
Description: as §1

various enzymes [30] = target: various enzymes (Homo sapiens, UniProt P43405); settings: compound 1 uM
Description: as §1

various enzymes [31] = target: various enzymes (Homo sapiens, UniProt Q9UM73, L1196M)
Description: as §1

various enzymes [32] = target: various enzymes (Homo sapiens, UniProt Q8IWQ3); settings: compound 1 uM
Description: as §1

Sequence of various enzymes (Homo sapiens, UniProt Q96D53) (Q96D53 whole entry): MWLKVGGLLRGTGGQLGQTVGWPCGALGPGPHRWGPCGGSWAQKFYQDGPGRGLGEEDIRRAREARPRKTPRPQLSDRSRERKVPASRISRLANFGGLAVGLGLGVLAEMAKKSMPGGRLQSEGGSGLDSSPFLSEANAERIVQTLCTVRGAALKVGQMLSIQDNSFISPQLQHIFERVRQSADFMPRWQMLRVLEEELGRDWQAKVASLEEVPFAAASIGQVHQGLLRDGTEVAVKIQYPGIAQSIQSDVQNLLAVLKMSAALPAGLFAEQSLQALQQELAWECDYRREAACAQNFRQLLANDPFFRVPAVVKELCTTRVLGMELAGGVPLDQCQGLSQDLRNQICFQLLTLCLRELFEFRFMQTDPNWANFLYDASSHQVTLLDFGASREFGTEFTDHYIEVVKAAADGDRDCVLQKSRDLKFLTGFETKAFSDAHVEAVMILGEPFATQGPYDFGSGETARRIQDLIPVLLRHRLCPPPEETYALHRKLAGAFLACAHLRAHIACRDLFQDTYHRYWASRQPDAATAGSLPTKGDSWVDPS

COc1c2c(nn1C)CN(C(C)C)C(=O)CCCn1cc(c(C(F)(F)F)n1)-c1c[nH]c3ncc-2cc13 [Compound 50, (Z)-5-isopropyl-35-methoxy-31-methyl-13-(trifluoromethyl)-11H,21H,31H-5-aza-2(3,5)-pyrrolo[2,3-b]pyridina-1(4,1),3(4,3)-dipyrazolacyclononaphan-6-one]
Ambit profiling: ADCK4 (various enzymes [1]): 7.7 | Ambit profiling: EGFR(T790M) (various enzymes [2]): 32 | Ambit profiling: ULK2 (various enzymes [3]): 96 | Ambit profiling: FLT3(D835Y) (various enzymes [4]): 0.7 | Ambit profiling: WEE2 (various enzymes [5]): 73 | Ambit profiling: TGFBR2 (various enzymes [6]): 20 | Ambit profiling: MLCK (various enzymes [7]): 82 | Ambit profiling: GSK3A (various enzymes [8]): 93 | Ambit profiling: FGFR1 (various enzymes [9]): 5.8 | Ambit profiling: MST3 (various enzymes [10]): 63 | Ambit profiling: FLT3(R834Q) (various enzymes [11]): 0 | Ambit profiling: SRPK2 (various enzymes [12]): 74 | Ambit profiling: MKK7 (various enzymes [13]): 80 | Ambit profiling: p38-delta (various enzymes [14]): 99 | Ambit profiling: SGK2 (various enzymes [15]): 59 | Ambit profiling: HASPIN (various enzymes [16]): 42 | Ambit profiling: RIOK3 (various enzymes [17]): 11 | Ambit profiling: STK16 (various enzymes [18]): 12 | Ambit profiling: INSRR (various enzymes [19]): 56 | Ambit profiling: PIK3CA(H1047Y) (various enzymes [20]): 100 | Ambit profiling: CAMKK1 (various enzymes [21]): 8 | Ambit profiling: IRAK4 (various enzymes [22]): 20 | Ambit profiling: MRCKA (various enzymes [23]): 99 | Ambit profiling: LIMK2 (various enzymes [24]): 64 | Ambit profiling: CAMK4 (various enzymes [25]): 100 | Ambit profiling: FLT3(ITD, F691L) (various enzymes [26]): 0 | Ambit profiling: FLT4 (various enzymes [27]): 0.1 | Ambit profiling: PIK3C2G (various enzymes [28]): 58 | Ambit profiling: MLK3 (various enzymes [29]): 11 | Ambit profiling: SYK (various enzymes [30]): 26 | Ambit profiling: ALK(L1196M) (various enzymes [31]): 12 | Ambit profiling: BRSK2 (various enzymes [32]): 72

CC(C)N1Cc2nn(C)cc2-c2cnc3[nH]cc(c3c2)-c2cn(nc2C(F)(F)F)CCCC1=O [Compound 45, (Z)-5-isopropyl-31-methyl-13-(trifluoromethyl)-11H,21H,31H-5-aza-2(3,5)-pyrrolo[2,3-b]pyridina-1(4,1),3(4,3)-dipyrazolacyclononaphan-6-one]
Ambit profiling: ADCK4 (various enzymes [1]): 3.9 | Ambit profiling: EGFR(T790M) (various enzymes [2]; compound 1 uM): 65 | Ambit profiling: ULK2 (various enzymes [3]): 56 | Ambit profiling: FLT3(D835Y) (various enzymes [4]; compound 1 uM): 1.3 | Ambit profiling: WEE2 (various enzymes [5]): 100 | Ambit profiling: TGFBR2 (various enzymes [6]): 91 | Ambit profiling: MLCK (various enzymes [7]): 99 | Ambit profiling: GSK3A (various enzymes [8]): 17 | Ambit profiling: FGFR1 (various enzymes [9]): 2.5 | Ambit profiling: MST3 (various enzymes [10]): 57 | Ambit profiling: FLT3(R834Q) (various enzymes [11]; compound 1 uM): 8.7 | Ambit profiling: SRPK2 (various enzymes [12]): 100 | Ambit profiling: MKK7 (various enzymes [13]): 76 | Ambit profiling: p38-delta (various enzymes [14]): 100 | Ambit profiling: SGK2 (various enzymes [15]): 23 | Ambit profiling: HASPIN (various enzymes [16]): 2.3 | Ambit profiling: RIOK3 (various enzymes [17]): 6 | Ambit profiling: STK16 (various enzymes [18]): 1.9 | Ambit profiling: INSRR (various enzymes [19]): 51 | Ambit profiling: PIK3CA(H1047Y) (various enzymes [20]; compound 1 uM): 84 | Ambit profiling: CAMKK1 (various enzymes [21]): 3.6 | Ambit profiling: IRAK4 (various enzymes [22]): 39 | Ambit profiling: MRCKA (various enzymes [23]): 100 | Ambit profiling: LIMK2 (various enzymes [24]): 100 | Ambit profiling: CAMK4 (various enzymes [25]): 100 | Ambit profiling: FLT3(ITD, F691L) (various enzymes [26]; compound 1 uM): 0 | Ambit profiling: FLT4 (various enzymes [27]): 0.1 | Ambit profiling: PIK3C2G (various enzymes [28]): 97 | Ambit profiling: MLK3 (various enzymes [29]): 28 | Ambit profiling: SYK (various enzymes [30]): 35 | Ambit profiling: ALK(L1196M) (various enzymes [31]; compound 1 uM): 18 | Ambit profiling: BRSK2 (various enzymes [32]): 64
